Activity calls are given as the source filed them. The calls are words filed in the database; no cut-off is given here.
How the values were obtained:
[1] = molecular target: Cyclin-dependent kinase 2 (Homo sapiens) (UniProt P24941); assay: PROTAC activity at CDK2 in human MDA-MB-468 cells assessed as degradation of CDK2 at 0.625 to 10 uM incubated for 24 hrs by Western blotting analysis; type: cell-based; conditions: dose 0.625-10 µM
MDA-MB-468 [2] = assay: Antiproliferative activity against human MDA-MB-468 cells assessed as reduction in cell growth at 5 to 20 uM measured upto 5 days by Celltiter glo luminescent assay; type: functional, cell-based; conditions: dose 5-20 µM, time <= 5.0 day
[3] = molecular target: T1, CDK8/Cyclin C (Homo sapiens) (UniProt P49336+P24863); assay: Hydrophobic-tagging degradation activity at CDK8/Cyclin C in human MDA-MB-231 cells assessed as protein degradation at 1.5 to 30 uM incubated for 48 hrs by Western blotting analysis; type: cell-based; conditions: dose 1.5-30 µM
[4] = molecular target: T1, CDK8/Cyclin C (Homo sapiens); assay: Hydrophobic-tagging degradation activity at CDK8/Cyclin C in human MDA-MB-468 cells assessed as downregulation of TERT gene expression level at 4 uM incubated for 24 hrs by qPT-PCR analysis; type: cell-based
Cyclin-T1 (Homo sapiens) = Cyclin-T1 (Homo sapiens) (UniProt O60563); assay: PROTAC activity at Cyclin T1 in human MDA-MB-468 cells assessed as degradation of Cyclin T1 at 0.625 to 10 uM incubated for 24 hrs by Western blotting analysis; type: cell-based; conditions: dose 0.625-10 µM
Sequence of Cyclin-T1 (Homo sapiens) (O60563 whole entry): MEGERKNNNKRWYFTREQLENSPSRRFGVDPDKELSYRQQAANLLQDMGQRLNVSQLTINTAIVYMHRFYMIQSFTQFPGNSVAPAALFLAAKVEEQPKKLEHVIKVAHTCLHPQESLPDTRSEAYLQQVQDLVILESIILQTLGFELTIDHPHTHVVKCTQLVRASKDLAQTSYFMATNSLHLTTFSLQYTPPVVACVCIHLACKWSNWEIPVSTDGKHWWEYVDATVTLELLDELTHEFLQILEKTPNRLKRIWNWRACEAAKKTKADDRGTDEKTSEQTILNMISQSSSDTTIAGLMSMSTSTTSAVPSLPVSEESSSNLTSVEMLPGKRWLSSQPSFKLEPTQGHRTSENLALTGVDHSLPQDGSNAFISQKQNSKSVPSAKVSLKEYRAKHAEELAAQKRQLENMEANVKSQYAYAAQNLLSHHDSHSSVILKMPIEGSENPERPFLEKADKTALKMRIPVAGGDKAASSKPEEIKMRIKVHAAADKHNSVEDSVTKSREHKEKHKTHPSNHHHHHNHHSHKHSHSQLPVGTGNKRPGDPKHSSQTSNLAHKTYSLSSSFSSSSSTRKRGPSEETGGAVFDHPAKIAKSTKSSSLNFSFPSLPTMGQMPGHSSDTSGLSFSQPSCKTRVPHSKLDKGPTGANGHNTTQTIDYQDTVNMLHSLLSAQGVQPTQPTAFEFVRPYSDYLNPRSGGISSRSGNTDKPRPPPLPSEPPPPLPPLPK

[5] = molecular target: Cyclin-dependent kinase 4 (Homo sapiens) (UniProt P11802); assay: Hydrophobic-tagging degradation activity at CDK4 in human MDA-MB-468 cells assessed as degradation of CDK4 at 0.625 to 10 uM incubated for 24 hrs by Western blotting analysis; type: cell-based; conditions: dose 0.625-10 µM
Sequence of Cyclin-dependent kinase 4 (Homo sapiens) (P11802 whole entry): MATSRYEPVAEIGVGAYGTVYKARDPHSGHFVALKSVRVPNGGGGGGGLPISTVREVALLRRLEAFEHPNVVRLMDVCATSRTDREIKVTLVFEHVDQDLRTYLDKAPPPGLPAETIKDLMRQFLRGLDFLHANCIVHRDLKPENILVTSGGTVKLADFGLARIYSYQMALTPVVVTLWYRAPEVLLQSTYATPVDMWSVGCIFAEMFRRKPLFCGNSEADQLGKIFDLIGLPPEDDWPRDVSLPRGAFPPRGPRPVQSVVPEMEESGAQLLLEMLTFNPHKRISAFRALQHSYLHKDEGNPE

[6] = molecular target: T1, CDK8/Cyclin C (Homo sapiens); assay: Hydrophobic-tagging degradation activity at CDK8/Cyclin C in human MDA-MB-468 cells assessed as protein degradation at 10 uM incubated for 2 to 20 hrs in presence of cycloheximide by Western blotting analysis; type: cell-based; conditions: time 2-20 hrs, TDE = time-dependent effect
[7] = molecular target: T1, CDK8/Cyclin C (Homo sapiens); assay: Hydrophobic-tagging degradation activity at CDK8/Cyclin C in human MDA-MB-468 cells assessed as downregulation of […] phosphorylation at Tyr701 residue at 2 to 8 uM incubated for 24 hrs by Western blotting analysis; type: cell-based; conditions: dose 2-8 µM
Cyclin-H (Homo sapiens) = Cyclin-H (Homo sapiens) (UniProt P51946); assay: PROTAC activity at Cyclin H in human MDA-MB-468 cells assessed as degradation of Cyclin H at 0.625 to 10 uM incubated for 24 hrs by Western blotting analysis; type: cell-based; conditions: dose 0.625-10 µM
Sequence of Cyclin-H (Homo sapiens) (P51946 whole entry): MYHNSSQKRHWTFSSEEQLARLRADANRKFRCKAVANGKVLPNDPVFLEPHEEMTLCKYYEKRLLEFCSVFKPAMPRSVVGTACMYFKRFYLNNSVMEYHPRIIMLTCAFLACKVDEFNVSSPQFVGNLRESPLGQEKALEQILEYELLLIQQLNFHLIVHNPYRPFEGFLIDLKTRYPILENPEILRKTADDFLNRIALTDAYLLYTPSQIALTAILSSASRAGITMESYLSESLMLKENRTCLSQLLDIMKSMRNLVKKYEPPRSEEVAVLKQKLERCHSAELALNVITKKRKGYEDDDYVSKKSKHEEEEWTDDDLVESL

[8] = molecular target: T1, CDK8/Cyclin C (Homo sapiens); assay: Hydrophobic-tagging degradation activity at CDK8/Cyclin C in human HCT-116 cells assessed as protein degradation at 0.75 to 20 uM incubated for 48 hrs by Western blotting analysis; type: cell-based; conditions: dose 0.75-20 µM
[9] = molecular target: T1, CDK8/Cyclin C (Homo sapiens); assay: Hydrophobic-tagging degradation activity at CDK8/Cyclin C in human MDA-MB-468 cells assessed as protein degradation at 0.38 to 12 uM incubated for 48 hrs by Western blotting analysis; type: cell-based; conditions: dose 0.38-12 µM
[10] = molecular target: Cyclin-dependent kinase 9 (Homo sapiens) (UniProt P50750); assay: Hydrophobic-tagging degradation activity at CDK9 in human MDA-MB-468 cells assessed as degradation of CDK9 at 0.625 to 10 uM incubated for 24 hrs by Western blotting analysis; type: cell-based; conditions: dose 0.625-10 µM
Sequence of Cyclin-dependent kinase 9 (Homo sapiens) (P50750 whole entry): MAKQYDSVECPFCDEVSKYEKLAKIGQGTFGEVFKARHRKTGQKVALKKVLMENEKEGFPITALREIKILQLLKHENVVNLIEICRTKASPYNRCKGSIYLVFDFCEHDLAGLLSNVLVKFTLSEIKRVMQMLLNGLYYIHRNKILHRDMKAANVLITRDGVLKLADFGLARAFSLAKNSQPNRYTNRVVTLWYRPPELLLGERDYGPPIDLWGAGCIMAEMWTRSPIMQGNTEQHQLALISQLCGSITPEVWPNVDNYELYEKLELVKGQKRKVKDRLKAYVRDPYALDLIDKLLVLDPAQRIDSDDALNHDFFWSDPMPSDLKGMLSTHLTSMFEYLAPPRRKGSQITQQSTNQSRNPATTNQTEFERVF

MDA-MB-468 [11] = assay: Inhibition of colony formation in human MDA-MB-468 cells assessed as reduction in cell colony number at 1.25 to 20 uM incubated for 3 days by crystal violet staining based assay; type: functional; conditions: dose 1.25-20 µM, time 3.0 day
MDA-MB-468 [12] = assay: Inhibition of colony formation in human MDA-MB-468 cells assessed as reduction in cell colony size at 1.25 to 20 uM incubated for 3 days by crystal violet staining based assay; type: functional; conditions: dose 1.25-20 µM, time 3.0 day
[13] = molecular target: Cyclin-dependent kinase 7 (Homo sapiens) (UniProt P50613); assay: Hydrophobic-tagging degradation activity at CDK7 in human MDA-MB-468 cells assessed as degradation of CDK7 at 0.625 to 10 uM incubated for 24 hrs by Western blotting analysis; type: cell-based; conditions: dose 0.625-10 µM
Sequence of Cyclin-dependent kinase 7 (Homo sapiens) (P50613 whole entry): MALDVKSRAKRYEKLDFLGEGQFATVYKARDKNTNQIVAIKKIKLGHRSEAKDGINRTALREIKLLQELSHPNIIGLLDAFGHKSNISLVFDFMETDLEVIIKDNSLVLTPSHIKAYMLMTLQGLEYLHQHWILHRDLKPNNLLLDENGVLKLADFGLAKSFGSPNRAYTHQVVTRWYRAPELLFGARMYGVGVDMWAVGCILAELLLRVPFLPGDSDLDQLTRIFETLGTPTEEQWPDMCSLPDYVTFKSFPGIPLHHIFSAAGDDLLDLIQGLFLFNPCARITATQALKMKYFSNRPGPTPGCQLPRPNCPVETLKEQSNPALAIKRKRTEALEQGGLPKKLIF

[14] = molecular target: T1, CDK8/Cyclin C (Homo sapiens); assay: Hydrophobic-tagging degradation activity at CDK8/Cyclin C in human MDA-MB-468 cells assessed as downregulation of MYC gene expression level at 4 uM incubated for 24 hrs by qPT-PCR analysis; type: cell-based
[15] = molecular target: T1, CDK8/Cyclin C (Homo sapiens); assay: Hydrophobic-tagging degradation activity at CDK8/Cyclin C in human MDA-MB-468 cells assessed as protein degradation at 1.1 to 10 uM incubated for 24 hrs in presence of MG132 by Western blotting analysis; type: cell-based; conditions: dose 1.1-10 µM
[16] = molecular target: T1, CDK8/Cyclin C (Homo sapiens); assay: Hydrophobic-tagging degradation activity at CDK8/Cyclin C in human MDA-MB-468 cells assessed as protein degradation at 5 uM incubated for 2 to 72 hrs by Western blotting analysis; type: cell-based; conditions: time 2-72 hrs, TDE = time-dependent effect
HCT-116 = assay: Antiproliferative activity against human HCT-116 cells assessed as reduction in cell viability incubated for 4 days by Celltiter glo luminescent assay; type: functional, cell-based; conditions: time 4.0 day
[17] = molecular target: Cyclin-dependent kinase 1 (Homo sapiens) (UniProt P06493); assay: Hydrophobic-tagging degradation activity at CDK1 in human MDA-MB-468 cells assessed as downregulation of CDK1 mRNA level at 1.1 to 10 uM incubated for 24 hrs by RT-qPCR analysis; type: cell-based; conditions: dose 1.1-10 µM
Sequence of Cyclin-dependent kinase 1 (Homo sapiens) (P06493 whole entry, looked up): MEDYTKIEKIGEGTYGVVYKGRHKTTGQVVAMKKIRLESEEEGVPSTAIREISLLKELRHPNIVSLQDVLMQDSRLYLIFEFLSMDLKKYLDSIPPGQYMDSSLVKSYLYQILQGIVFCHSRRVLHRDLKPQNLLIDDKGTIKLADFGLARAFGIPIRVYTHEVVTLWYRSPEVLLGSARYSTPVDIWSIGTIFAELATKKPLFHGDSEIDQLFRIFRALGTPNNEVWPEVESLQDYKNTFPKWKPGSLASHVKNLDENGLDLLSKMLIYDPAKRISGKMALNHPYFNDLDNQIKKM

MDA-MB-468 [18] = assay: Antiproliferative activity against human MDA-MB-468 cells assessed as inhibition of cell proliferation incubated for 4 days by Celltiter glo luminescent assay; type: functional, cell-based; conditions: MDA-MB-468, 96 h
[19] = molecular target: Cyclin-dependent kinase 6 (Homo sapiens) (UniProt Q00534); assay: PROTAC activity at CDK6 in human MDA-MB-468 cells assessed as degradation of CDK6 at 0.625 to 10 uM incubated for 24 hrs by Western blotting analysis; type: cell-based; conditions: dose 0.625-10 µM
Sequence of Cyclin-dependent kinase 6 (Homo sapiens) (Q00534 whole entry): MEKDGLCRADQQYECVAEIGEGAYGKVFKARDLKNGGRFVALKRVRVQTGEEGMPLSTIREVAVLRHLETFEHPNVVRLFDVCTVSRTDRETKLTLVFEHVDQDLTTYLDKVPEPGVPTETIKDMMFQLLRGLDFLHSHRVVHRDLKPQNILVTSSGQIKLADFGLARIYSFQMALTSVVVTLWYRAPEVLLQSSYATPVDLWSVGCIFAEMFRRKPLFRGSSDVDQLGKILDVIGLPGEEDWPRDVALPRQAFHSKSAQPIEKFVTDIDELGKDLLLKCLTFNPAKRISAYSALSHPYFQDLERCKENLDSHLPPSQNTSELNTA

[20] = molecular target: Cyclin-dependent kinase 5 (Homo sapiens) (UniProt Q00535); assay: PROTAC activity at CDK5 in human MDA-MB-468 cells assessed as degradation of CDK5 at 0.625 to 10 uM incubated for 24 hrs by Western blotting analysis; type: cell-based; conditions: dose 0.625-10 µM
Sequence of Cyclin-dependent kinase 5 (Homo sapiens) (Q00535 whole entry, looked up): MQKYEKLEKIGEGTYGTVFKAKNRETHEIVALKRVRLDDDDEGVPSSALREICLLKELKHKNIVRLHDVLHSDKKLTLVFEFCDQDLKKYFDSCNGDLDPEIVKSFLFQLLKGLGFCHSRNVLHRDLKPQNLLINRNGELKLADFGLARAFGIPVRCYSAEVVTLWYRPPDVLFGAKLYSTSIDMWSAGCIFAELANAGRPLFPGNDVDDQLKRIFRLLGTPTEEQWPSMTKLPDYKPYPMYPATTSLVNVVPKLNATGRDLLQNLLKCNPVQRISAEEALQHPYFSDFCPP

[21] = molecular target: T1, CDK8/Cyclin C (Homo sapiens); assay: Hydrophobic-tagging degradation activity at CDK8/Cyclin C in human MDA-MB-468 cells assessed as effect on mRNA expression level at 4 uM incubated for 24 hrs by […] analysis; type: cell-based
Cyclin-A2 (Homo sapiens) = Cyclin-A2 (Homo sapiens) (UniProt P20248); assay: PROTAC activity at Cyclin A2 in human MDA-MB-468 cells assessed as degradation of Cyclin A2 at 0.625 to 10 uM incubated for 24 hrs by Western blotting analysis; type: cell-based; conditions: dose 0.625-10 µM
Sequence of Cyclin-A2 (Homo sapiens) (P20248 whole entry): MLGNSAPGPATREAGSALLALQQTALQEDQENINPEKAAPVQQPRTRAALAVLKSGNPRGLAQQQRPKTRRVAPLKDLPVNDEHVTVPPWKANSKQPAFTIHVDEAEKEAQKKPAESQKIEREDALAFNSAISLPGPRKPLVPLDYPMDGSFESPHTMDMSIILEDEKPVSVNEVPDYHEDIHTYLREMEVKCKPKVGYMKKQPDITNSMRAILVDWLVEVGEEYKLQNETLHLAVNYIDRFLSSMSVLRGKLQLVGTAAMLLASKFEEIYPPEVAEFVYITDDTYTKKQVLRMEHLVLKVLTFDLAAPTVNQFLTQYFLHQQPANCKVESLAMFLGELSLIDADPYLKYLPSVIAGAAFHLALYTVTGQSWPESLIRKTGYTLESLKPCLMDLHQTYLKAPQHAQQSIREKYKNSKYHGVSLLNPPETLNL

Cyclin-K (Homo sapiens) = Cyclin-K (Homo sapiens) (UniProt O75909); assay: PROTAC activity at Cyclin K in human MDA-MB-468 cells assessed as degradation of Cyclin K at 0.625 to 10 uM incubated for 24 hrs by Western blotting analysis; type: cell-based; conditions: dose 0.625-10 µM
Sequence of Cyclin-K (Homo sapiens) (O75909 whole entry): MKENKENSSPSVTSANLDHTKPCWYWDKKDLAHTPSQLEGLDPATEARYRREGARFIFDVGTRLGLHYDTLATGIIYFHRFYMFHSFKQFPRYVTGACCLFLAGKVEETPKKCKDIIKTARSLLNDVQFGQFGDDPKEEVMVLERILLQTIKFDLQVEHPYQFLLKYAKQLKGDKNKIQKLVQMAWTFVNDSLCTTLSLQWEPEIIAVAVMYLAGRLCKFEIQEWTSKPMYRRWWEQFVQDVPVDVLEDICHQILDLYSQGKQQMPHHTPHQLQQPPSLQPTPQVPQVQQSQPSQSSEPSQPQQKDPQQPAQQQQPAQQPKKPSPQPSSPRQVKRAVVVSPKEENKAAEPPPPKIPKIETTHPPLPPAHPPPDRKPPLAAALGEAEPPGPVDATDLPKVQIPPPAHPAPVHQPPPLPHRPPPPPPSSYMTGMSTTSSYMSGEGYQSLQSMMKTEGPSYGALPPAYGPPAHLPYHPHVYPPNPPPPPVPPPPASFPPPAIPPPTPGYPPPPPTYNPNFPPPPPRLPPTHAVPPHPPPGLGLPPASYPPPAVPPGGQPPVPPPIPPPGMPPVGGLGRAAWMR

[22] = molecular target: T1, CDK8/Cyclin C (Homo sapiens); assay: Hydrophobic-tagging degradation activity at CDK8/Cyclin C in human MDA-MB-468 cells assessed as downregulation of STAT1 phosphorylation at Ser727 residue at 4 uM incubated for 24 hrs followed by compound washout and measured after 24 hrs by Western blotting analysis; type: cell-based

O=C(Cn1cc(-c2ccc(-c3cncc4ccccc34)cc2)cn1)N1CCN(CCCC23CC4CC(CC(C4)C2)C3)CC1
Activity [1]: inactive | Activity (MDA-MB-468 [2]): Active | Activity [3]: Active | Activity [4]: Active | Activity (Cyclin-T1 (Homo sapiens)): inactive | Activity [5]: inactive | Activity [6]: Tde | Activity [7]: inactive | Activity (Cyclin-H (Homo sapiens)): inactive | Activity [8]: Active | Activity [9]: Dose-Dependent Effect | Activity [10]: inactive | inhibition (MDA-MB-468 [11]): Active | inhibition (MDA-MB-468 [12]): Active | Activity [13]: inactive | Activity [14]: Active | Activity [15]: inactive | Activity [16]: Tde | Activity (HCT-116): Active | Activity [17]: Active | IC50 (MDA-MB-468 [18]): 5.73 µM | Activity [19]: inactive | Activity [20]: inactive | Activity [21]: inactive | Activity (Cyclin-A2 (Homo sapiens)): inactive | Activity (Cyclin-K (Homo sapiens)): inactive | inhibition [22]: 70%

From ChEMBL document CHEMBL5380817, “Discovery of LL-K8-22: A Selective, Durable, and Small-Molecule Degrader of the CDK8-Cyclin C Complex” (J Med Chem, 2023)
